What was measured:
DU145 [1] = test: Transwell migration assay, DU145; type: cell-based; conditions: 0.5, 1 or 2 μM, 24 h
Experimental: The assay was done as previously described. The effect of RP-010, (0.5, 1 or 2 µM) on the migration of PC cells was tested using 24 trans-well inserts with an […] pore size. The addition of the insert to the well forms two chambers (upper and lower), where the upper chamber was used to grow the cells on the porous membrane. The lower chamber was filled with 600-μL cell-free DMEM medium. 200-μL of the cell suspension was added to each insert, and cells allowed to attach for 1 h. The test compound was added in different concentrations and incubated with the cells for 24 h. […] Finally, the remaining migrated cells were fixed by methanol, and stained with 0.1% crystal violet dye and counted with an EVOS microscope. The number of migrated cells was counted for the cultures incubated with vehicle or RP-010.

DU145 [2] = test: Oxidative stress (H2DCFDA fluorescence), DU145; type: cell-based; conditions: 0.5, 1, 2 or 4 µM, 24 h, vs vehicle
Experimental: The compound 2′,7′-dichlorofluorescin (H2DCFDA) was used to detect changes in the oxidative stress status, as previously described in PC-3 and DU145. […] The cells were then washed 3 times with 1× PBS for 5 min each. The level of reactive oxygen species was then measured, based on the fluorescence level of oxidized H2DCFDA dye (excitation at 485 nm and emission at 535 nm), using an EVOS digital fluorescent microscope at 40×.

CRL-1459 = test: MTT cytotoxicity assay, CRL-1459 normal colon epithelial cells; type: cell-based; conditions: Homo sapiens, normal colon epithelial cell line, means ± SDs of three independent experiments, read-out: IC50 ± SD, Non-Prostate Cells, CRL-1459
Experimental: All the cells were cultured as adherent monolayers in culture flasks, and were used to determine the anti-cancer efficacy of RP-010. DMEM supplemented with 4.5 g of glucose, 10% fetal bovine serum (FBS) and 1% penicillin/streptomycin, was used to augment cell growth. Finally, the cells were incubated and grown in a humidified incubator containing 5% CO2 at 37 °C [50]. […] Cells were obtained from frozen stocks and cell passaging (up to P4) was performed at 80% cell confluency, using PBS and trypsin + 2.2-mM EDTA.
MTT assays were used to determine the cytotoxicity of the RP compounds, to PC cell lines, as previously described.

HCT116 = test system: HCT116; parameters: method as in PMID 28759878; conditions: colon cancer cell line; cited from earlier work
DU145 [3] = test: Time-dependent cell confluence (live cell imaging), DU145; type: cell-based
Experimental: The cytotoxicity of RP-010, over time, was determined using DU145 cells. The cells were seeded and incubated as previously described. The DU145 cells were incubated with vehicle or RP-010 for 72 h. The pictures were taken over time, at a snapshot interval of 15 min, from the same spot of the flask using the CytoSMART™ Lux 10X system (LONZA biosciences Walkersville, MD, USA) for live cell imaging.

PC-3 [4] = test: Colony formation assay, PC-3; type: cell-based; conditions: 1 or 2 µM, vs vehicle, p < 0.01
Experimental: This assay was performed as previously described. The DU145 and PC-3 cells were incubated with RP-010 (1 or 2 µM) for 24 h. […], the medium was discarded and cells were trypsinized with 0.25% trypsin, 2.21-mM EDTA, and then harvested, counted, and reseeded in 6-well plates at a low density (500 cell/well). The cells were allowed to form colonies for 10–14 days at 37 °C, with the medium being changed every other day. Subsequently, methanol was used to fix the colonies formed in each plate, followed by staining the colonies with 0.1% crystal violet dye for 30 min. Finally, colonies were viewed and counted under an EVOS microscope (Themo Fisher Scientific, Wayne, MI, USA). The colony formation rate equation was applied for each compound: Colony formation rate = the number of colonies/numbers of seeded cells × 100%.

[5] = test system: Wnt/β-catenin signaling pathway proteins in DU145 cells; test: Western analysis of Wnt/β-catenin signaling pathway proteins, DU145; type: cell-based
Experimental: (§1) DU145 cells were incubated with RP-010 ((1 or 2 µM) for 24 h. Thereafter, the cells were subjected to a two-step lysis process to extract and separate the cytosolic and the nuclear proteins, as previously described. Next, protein separation for both cytosolic and nuclear proteins was achieved by electrophoresing the samples through acrylamide SDS-PAGE gels, followed by transfer to a PVDF membrane. The PVDF membrane was then incubated overnight with the following primary antibodies: rabbit α-tubulin, 1:4000 dilution, rabbit BAX (1:1000), rabbit BAK (1:1000), rabbit cytochrome c (1:1000), rabbit PARP (1:5000), rabbit β-Catenin (1:4000), rabbit DVL3 (1:4000), rabbit LRP-6 (1:1000), rabbit P-LRP-6 (1:1000), rabbit c-Myc (1: 4000), rabbit cyclin B1 (1:2000), rabbit Wnt 5a (1:1000), rabbit naked 1 and naked 2 (1:1000), mouse E-cadherin (1:4000), mouse N-cadherin (1:4000), mouse β-actin (1:5000) and rabbit histone (1:3000). Finally, protein expression levels were determined as described previously. In the Figure 3, Figure 5 and Figure S8, the protein blots above β-actin were cytosolic lysates, while all the proteins below β-actin and above histones (loading controls) were nuclear lysates.

PC-3 [6] = test: DAPI staining of nuclear changes, PC-3; type: cell-based; conditions: 24 and 48 h
Experimental: The nuclear changes in DU145 and PC-3 cells lines produced by RP-010 (1, 2 and 4 µM) incubation at 24 or 48 h were determined using DAPI staining. The cells were seeded on culture cover glasses in 6-well plates, and allowed to grow overnight. The cells were then incubated with RP-010, for an additional 24 h, at 37 °C. The incubated cells were fixed with 4% paraformaldehyde, followed by permeabilization with 1× PBS/0.3% Triton X-100 for 25 min. Finally, DAPI stain was added, and cells were photographed using the EVOS microscope.

[7] = test system: Bak, Bax, Bcl2, caspase 3, PARP, cytochrome c in DU145 cells; test: Western analysis of apoptosis-regulating proteins, DU145; type: cell-based; conditions: 1 or 2 μM, 24 h
Experimental: as §1

[8] = DU145, 1 or 2 μM, 24 h, p < 0.01

In the case of `COc1ccc(-c2nc3sc4c(c3c(=O)[nH]2)CCCC4)cc1` [RP10], the “Number of cells migrating across the membrane (transwell)” value (DU145 [1]) is reported as “significantly decreased”, the “Reactive oxygen species (ROS) level” value (DU145 [2]) is reported as “significantly higher levels” and the IC50 (CRL-1459) is reported as 73 ± 5.3 µM. The IC50 (HCT116) was 0.6 ± 0.3 µM, the “Cell growth over time (confluence)” value (DU145 [3]; 0.5 µM, after 24 h of incubation, p < 0.05) was “significantly decreased” and the “Cell growth over time (confluence)” value (DU145 [3]; 1 µM, after 12 h of incubation, p < 0.01) was “significantly decreased”. For the same molecule, the Colony formation rate (PC-3 [4]) was “significantly decreased”, the “Expression levels of N-cadherin” value ([5]; 1 and 2 µM) was “did not significantly alter” and the “Accumulation of lower molecular weight β-catenin fragments (P3, P4)” value ([5]; DU145, 1 or 2 μM, 24 h) was “increased the accumulation”. The “Fragmentation of full-length β-catenin (p92) into lower molecular weight fragments (≈70 kDa)” value ([5]; DU145, 1 or 2 μM, 24 h) was “significant fragmentation”, the “Levels of E-cadherin” value ([5]; DU145, 1 or 2 μM, 24 h) was “did not significantly alter” and the “Levels of Wnt 5a” value ([5]; DU145, 1 or 2 μM, 24 h) was “no significant change”. For the same molecule, the “Levels of nuclear c-Myc” value ([5]; DU145, 1 or 2 μM, 24 h) was “significantly decreased”, the “Levels of total active β-catenin” value ([5]; DU145, 1 or 2 μM, 24 h) was “significant decrease” and the “Nuclear levels of Naked 1” value ([5]; DU145, 1 or 2 μM, 24 h) was “significantly increased”. The “Nuclear levels of Naked 2” value ([5]; DU145, 1 or 2 μM, 24 h) was “significantly increased”, the “Nuclear levels of cyclin B1” value ([5]; DU145, 1 or 2 μM, 24 h) was “not significantly altered” and the “Levels of cytosolic Naked 1” value ([5]; DU145, 1 or 2 μM, 24 h, p < 0.001) was “significantly decreased”. The “Cytosolic levels of cyclin B1” value [5, 8] was “decreased significantly”, the “Levels of DVL3” value [5, 8] was “significantly decreased” and the “Levels of cytosolic Naked 2” value [5, 8] was “significantly decreased”. The “Levels of phosphorylated LRP-6 (P-LRP-6)” value [5, 8] was “significantly decreased”, the “Levels of LRP-6” value ([5]; DU145, 1 or 2 μM, 24 h, p < 0.05) was “significantly decreased” and the “Nuclear morphology (DAPI)” value (PC-3 [6]; 1 µM) was “significant increase in multinucleated cells”. For the same molecule, the “Nuclear morphology (DAPI)” value (PC-3 [6]; 2 or 4 μM) was “apoptosis”, the “Expression of Bax” value [7] was “did not significantly alter” and the “Levels of cytochrome c” value [7] was “did not significantly alter”. The “Levels of total cytosolic PARP” value [7] was “significantly reduced”, the “Cleavage of caspase-3” value ([7]; p < 0.001) was “significantly increased” and the “Expression of Bcl2” value ([7]; p < 0.01) was “significantly downregulated”. The “Levels of cleaved nuclear PARP” value ([7]; p < 0.01) was “increased”, the “Levels of cleaved cytosolic PARP” value ([7]; p < 0.05) was “significantly increased” and the “Expression level of Bak, increase” value ([7]; vs vehicle, p < 0.01) was no less than 2 fold.

Reference: PMC6563099, “Novel Thienopyrimidine Derivative, RP-010, Induces β-Catenin Fragmentation and Is Efficacious against Prostate Cancer Cells” (Cancers, 2019)
